Source: ChEMBL document CHEMBL3885861, “Open TG-GATES”

Species on record: Rattus norvegicus
Experiment: Open TG-GATES - Regimen: Single
Assay type: toxicity, organism-based, Sprague-Dawley
Set-up: regimen Single, gender Male, age 6 weeks
Settings: in vivo, po, 10 mg/kg, route gavage, dose level Middle; for APTT / Bas / Eos / Fbg / Hb / Ht / Lym / MCH / MCHC / MCV / Mono / Neu / PT / Plat / RBC / Ret / WBC: tissue Blood; for KIDNEY_L / KIDNEY_R / KIDNEY_TOTAL: tissue Kidney; for LIVER: tissue Liver; for A/G / ALP / ALT / AST / BUN / CRE / Ca / Cl / DBIL / GLC / IP / K / LDH / Na / PL / RALB / TBIL / TC / TG / TP / gamma-GTP: tissue Plasma

Compound: Cn1cnc([N+](=O)[O-])c1Sc1ncnc2nc[nH]c12 [AZATHIOPRINE]
- TERMINAL_BW (3 h): 192.8 g
- APTT (3 h): 22.9 s
- Bas (3 h): 0%
- Eos (3 h): 0.8%
- Fbg (3 h): 277.6 mg/dL
- Hb (3 h): 13.1 g/dL
- Ht (3 h): 39.1%
- Lym (3 h): 77.8%
- MCH (3 h): 21.6 pg
- MCHC (3 h): 33.7%
- MCV (3 h): 64.2 fL
- Mono (3 h): 2.2%
- Neu (3 h): 18%
- PT (3 h): 15.7 s
- Plat (3 h): 117.8 x10_4/uL
- RBC (3 h): 609.8 x10_4/ul
- Ret (3 h): 9.7%
- WBC (3 h): 65 x10_2/uL
- KIDNEY_L (3 h): 0.9 g
- KIDNEY_R (3 h): 0.9 g
- KIDNEY_TOTAL (3 h): 1.7 g
- LIVER (3 h): 8.5 g
- A/G (3 h): 1.1
- ALP (3 h): 1723.6 IU/L
- ALT (3 h): 47.6 IU/L
- AST (3 h): 78 IU/L
- BUN (3 h): 11.4 mg/dL
- CRE (3 h): 0.2 mg/dL
- Ca (3 h): 10.6 mg/dL
- Cl (3 h): 105.6 meq/L
- DBIL (3 h): 0.006 mg/dL
- GLC (3 h): 189.4 mg/dL
- IP (3 h): 9.1 mg/dL
- K (3 h): 4.1 meq/L
- LDH (3 h): 211.4 IU/L
- Na (3 h): 141.8 meq/L
- PL (3 h): 133.2 mg/dL
- RALB (3 h): 2.9 g/dL
- TBIL (3 h): 0.008 mg/dL
- TC (3 h): 77 mg/dL
- TG (3 h): 57.6 mg/dL
- TP (3 h): 5.5 g/dL
- gamma-GTP (3 h): 1 IU/L
- TERMINAL_BW (6 h): 189.2 g
- APTT (6 h): 21.4 s
- Bas (6 h): 0%
- Eos (6 h): 1%
- Fbg (6 h): 308.4 mg/dL
- Hb (6 h): 12.8 g/dL
- Ht (6 h): 39%
- Lym (6 h): 72%
- MCH (6 h): 21.4 pg
- MCHC (6 h): 32.9%
- MCV (6 h): 65.2 fL
- Mono (6 h): 2.8%
- Neu (6 h): 22.8%
- PT (6 h): 15.6 s
- Plat (6 h): 124.6 x10_4/uL
- RBC (6 h): 598.6 x10_4/ul
- Ret (6 h): 9.2%
- WBC (6 h): 73.6 x10_2/uL
- KIDNEY_L (6 h): 0.9 g
- KIDNEY_R (6 h): 0.9 g
- KIDNEY_TOTAL (6 h): 1.8 g
- LIVER (6 h): 8.1 g
- A/G (6 h): 1.2
- ALP (6 h): 1521.2 IU/L
- ALT (6 h): 41.8 IU/L
- AST (6 h): 70.6 IU/L
- BUN (6 h): 8.8 mg/dL
- CRE (6 h): 0.1 mg/dL
- Ca (6 h): 10.5 mg/dL
- Cl (6 h): 107.2 meq/L
- DBIL (6 h): 0.004 mg/dL
- GLC (6 h): 175.4 mg/dL
- IP (6 h): 9.1 mg/dL
- K (6 h): 4.6 meq/L
- LDH (6 h): 249.2 IU/L
- Na (6 h): 140.8 meq/L
- PL (6 h): 120.6 mg/dL
- RALB (6 h): 2.9 g/dL
- TBIL (6 h): 0.01 mg/dL
- TC (6 h): 72.6 mg/dL
- TG (6 h): 50.4 mg/dL
- TP (6 h): 5.4 g/dL
- gamma-GTP (6 h): 1 IU/L
- TERMINAL_BW (9 h): 183.9 g
- APTT (9 h): 22.4 s
- Bas (9 h): 0%
- Eos (9 h): 1%
- Fbg (9 h): 304.8 mg/dL
- Hb (9 h): 12.9 g/dL
- Ht (9 h): 38.9%
- Lym (9 h): 74.8%
- MCH (9 h): 21.8 pg
- MCHC (9 h): 33.2%
- MCV (9 h): 65.6 fL
- Mono (9 h): 2.4%
- Neu (9 h): 20.6%
- PT (9 h): 15.3 s
- Plat (9 h): 114.2 x10_4/uL
- RBC (9 h): 592.2 x10_4/ul
- Ret (9 h): 9%
- WBC (9 h): 83.3 x10_2/uL
- KIDNEY_L (9 h): 0.9 g
- KIDNEY_R (9 h): 0.9 g
- KIDNEY_TOTAL (9 h): 1.7 g
- LIVER (9 h): 7.7 g
- A/G (9 h): 1.2
- ALP (9 h): 1473.8 IU/L
- ALT (9 h): 32.4 IU/L
- AST (9 h): 64.8 IU/L
- BUN (9 h): 10 mg/dL
- CRE (9 h): 0.1 mg/dL
- Ca (9 h): 10.4 mg/dL
- Cl (9 h): 106.6 meq/L
- DBIL (9 h): 0 mg/dL
- GLC (9 h): 186 mg/dL
- IP (9 h): 9.6 mg/dL
- K (9 h): 4.2 meq/L
- LDH (9 h): 223.2 IU/L
- Na (9 h): 141 meq/L
- PL (9 h): 145 mg/dL
- RALB (9 h): 3.1 g/dL
- TBIL (9 h): 0.012 mg/dL
- TC (9 h): 85.2 mg/dL
- TG (9 h): 47 mg/dL
- TP (9 h): 5.6 g/dL
- gamma-GTP (9 h): 1 IU/L
- TERMINAL_BW (24 h): 199.9 g
- APTT (24 h): 20.9 s
- Bas (24 h): 0%
- Eos (24 h): 1%
- Fbg (24 h): 309 mg/dL
- Hb (24 h): 13.4 g/dL
- Ht (24 h): 39.3%
- Lym (24 h): 81.6%
- MCH (24 h): 21.7 pg
- MCHC (24 h): 34.1%
- MCV (24 h): 63.9 fL
- Mono (24 h): 2%
- Neu (24 h): 14.4%
- PT (24 h): 15.4 s
- Plat (24 h): 120.4 x10_4/uL
- RBC (24 h): 616.2 x10_4/ul
- Ret (24 h): 7.9%
- WBC (24 h): 54.7 x10_2/uL
- KIDNEY_L (24 h): 0.9 g
- KIDNEY_R (24 h): 0.9 g
- KIDNEY_TOTAL (24 h): 1.8 g
- LIVER (24 h): 9.2 g
- A/G (24 h): 1.3
- ALP (24 h): 1643.2 IU/L
- ALT (24 h): 40.2 IU/L
- AST (24 h): 71.4 IU/L
- BUN (24 h): 15.4 mg/dL
- CRE (24 h): 0.1 mg/dL
- Ca (24 h): 10.8 mg/dL
- Cl (24 h): 106.8 meq/L
- DBIL (24 h): 0.002 mg/dL
- GLC (24 h): 190.6 mg/dL
- IP (24 h): 7.6 mg/dL
- K (24 h): 4.1 meq/L
- LDH (24 h): 203.8 IU/L
- Na (24 h): 143 meq/L
- PL (24 h): 160.2 mg/dL
- RALB (24 h): 3.1 g/dL
- TBIL (24 h): 0.006 mg/dL
- TC (24 h): 90 mg/dL
- TG (24 h): 82.6 mg/dL
- TP (24 h): 5.6 g/dL
- gamma-GTP (24 h): 1 IU/L
